Residues, ends and D or L forms follow the SMILES beside them.
What was measured:
Format in all cases: cell-based
Candida albicans = assay: Minimal Inhibitory Concentration, microtiter broth dilution assay; conditions: Mueller Hinton broth, 16-20 hours at 37° C., lowest concentration giving a clear well
Description: (§1) Table I, which follows, indicates the Minimal Inhibitory Concentration (MIC) in μg/ml of Peptides (SEQ ID NO:1) through (SEQ ID NO:4), (SEQ ID NO:6) through (SEQ ID NO:13), (SEQ ID NO:16), (SEQ ID NO:20), (SEQ ID NO:21) and (SEQ ID NO:23) against S. aureus strain ATCC 25923, P. aeruginosa strain ATCC 27853, E. coli strain 25922, and Candida albicans. The procedure for the antibacterial assay is based upon the guidelines of the National Committee for Clinical Laboratory Standards, Document M7-T2, Volume 8, No. 8, 1988. Stock solutions of the peptides hereinabove mentioned are prepared at a concentration of 512 μg/ml in sterile deionized distilled water and stored at […]. Each peptide is a C-terminal amide and may or may not be acetylated at the N-terminus. An acetyl group at the N-terminus is indicated by an X. The stock peptide solution is diluted in serial dilutions (1:2) down the wells of a microtiter plate so that the final concentrations of peptides in the wells are 0.25, 0.50, 1, 2, 4, 8, 16, 32, 64, 128, and 256 μg/ml. 1-5×10^5 CFUs/ml of either S. aureus ATCC 25923, E. coli ATCC 25922, P. aeruginosa ATCC 27853, or Candida albicans were added to the wells in full strength Mueller Hinton broth (BBL 11443) from a mid-log culture. The inoculum is standardized spectrophotometrically at 600 nm and is verified by colony counts. The plates are incubated for 16-20 hours at 37° C., and the minimal inhibitory concentration (MIC) for each peptide is determined. Minimal inhibitory concentration is defined as the lowest concentration of peptide which produces a clear well in the microtiter plate.

[1] = system: S. aureus strain ATCC 25923; assay: Minimal Inhibitory Concentration, microtiter broth dilution antibacterial assay; conditions: S. aureus ATCC 25923; Mueller Hinton broth; 16-20 hours at 37° C.; lowest concentration giving a clear well
Description: as §1

E. coli ATCC 25922 = assay: as above; conditions: Mueller Hinton broth, 16-20 hours at 37° C., lowest concentration giving a clear well
Description: as §1

Row | Structure (SMILES) | Minimal Inhibitory Concentration C. albicans (Candida albicans) | Minimal Inhibitory Concentration S. aureus [1] | Minimal Inhibitory Concentration E. coli (E. coli ATCC 25922)
1 | CC[C@H](C)[C@H](NC(=O)CN)C(=O)N[C@H](C(=O)NCC(=O)N[C@@H](CCCCN)C(=O)N[C@@H](Cc1ccccc1)C(=O)N[C@@H](CC(C)C)C(=O)N[C@@H](CCCCN)C(=O)N[C@@H](CCCCN)C(=O)N[C@@H](C)C(=O)N[C@@H](CCCCN)C(=O)N[C@@H](CCCCN)C(=O)N[C@@H](Cc1ccccc1)C(=O)NCC(=O)N[C@@H](CCCCN)C(=O)N[C@@H](C)C(=O)N[C@@H](Cc1ccccc1)C(=O)N[C@H](C(=O)N[C@@H](CCCCN)C(=O)N[C@H](C(=O)N[C@@H](CC(C)C)C(=O)N[C@@H](CCCCN)C(=O)N[C@@H](CCCCN)C(N)=O)[C@@H](C)CC)C(C)C)[C@@H](C)CC [(SEQ ID NO: 16)-NH2] (H-GIIGKFLKKAKKFGKAFVKILKK-NH2) | 64 µg/mL | 4 µg/mL | 8 µg/mL
2 | CC[C@H](C)[C@H](NC(=O)[C@H](C)NC(=O)[C@H](CCCCN)NC(=O)CNC(=O)[C@@H](NC(=O)[C@H](CCCCN)NC(=O)[C@H](CCCCN)NC(=O)[C@H](C)NC(=O)[C@H](CCCCN)NC(=O)[C@H](CCCCN)NC(=O)[C@H](CC(C)C)NC(=O)[C@@H](NC(=O)[C@H](CCCCN)NC(=O)CNC(=O)[C@@H](N)Cc1ccccc1)[C@@H](C)CC)[C@@H](C)CC)C(=O)N[C@H](C(=O)N[C@@H](CCCCN)C(=O)N[C@@H](Cc1ccccc1)C(=O)N[C@@H](CC(C)C)C(=O)N[C@@H](CCCCN)C(=O)N[C@@H](CCCCN)C(N)=O)C(C)C [(SEQ ID NO: 23)-NH2] (H-FGKILKKAKKIGKAIVKFLKK-NH2) | 128 µg/mL | 16 µg/mL | 32 µg/mL
3 | CC[C@H](C)[C@H](NC(C)=O)C(=O)NCC(=O)N[C@@H](CCCCN)C(=O)N[C@@H](Cc1ccccc1)C(=O)N[C@@H](CC(C)C)C(=O)N[C@@H](CCCCN)C(=O)N[C@@H](CCCCN)C(=O)N[C@@H](C)C(=O)N[C@@H](CCCCN)C(=O)N[C@@H](CCCCN)C(=O)N[C@@H](Cc1ccccc1)C(=O)NCC(=O)N[C@@H](CCCCN)C(=O)N[C@@H](C)C(=O)N[C@@H](Cc1ccccc1)C(=O)N[C@H](C(=O)N[C@@H](CCCCN)C(=O)N[C@H](C(=O)N[C@@H](CC(C)C)C(=O)N[C@@H](CCCCN)C(=O)N[C@@H](CCCCN)C(N)=O)[C@@H](C)CC)C(C)C [X- (SEQ ID NO: 1)-NH2] (Ac-IGKFLKKAKKFGKAFVKILKK-NH2) | 128 µg/mL | 8 µg/mL | 8 µg/mL
